According to patent publication US9248114B2, “Use of 2,5-dihydroxybenzene compounds and derivatives for the treatment of hematological dyscrasias and cancer of an organ” (Action Medicines, S.L., priority 2006, dated 2016):

Key:
[1] = test system: subcutaneous gliomas (rat C6 glioma cells); assay: Progression of established subcutaneous C6 gliomas in rats; format: in vivo; conditions: i.p. 100 mg/kg/day for 10 days; for average size (volume) of subcutaneous gliomas: treatment started 5 days after implantation
Experimental: Rat C6 glioma cells were cultured as previously described (Cuevas P et al. Neurol Res, 2005). The C6 cells cultured to confluence in 75 cm^2 flasks were removed and implanted under the abdominal skin in anesthetized rats. The existence of a tumor in the implantation area was observed five days after the implantation of the tumor cells. Only the rats in which the existence of a tumor was observed were randomly assigned to be treated with daily intraperitoneal injections of 2,5-dihydroxybenzene sulfonate (DHBS; 100 mg/kg/day), 2,5-diacetoxybenzene sulfonate (DABS; 100 mg/kg/day) or the carrier (0.9% NaCl). After 10 days of treatment, the subcutaneous gliomas were removed and their volume was calculated according to the formula V=4/3π·(L/2)·(A/2)^2 (in mm^3) where L is the larger diameter and A is the smaller diameter, both expressed in mm.

[2] = target: T1, fibroblast growth factor-1 (FGF-1) (Homo sapiens, UniProt P05230); assay: Mitogenesis induced by FGF-1 in quiescent Balb/c 3T3 fibroblast cultures; format: cell-based; conditions: quiescent Balb/c 3T3 fibroblasts
Experimental: The evaluated compounds were used in the form of potassium salt, except in the first case which used calcium salt. The experiments were carried out as described in Fernandez-Tornero C et al. J Biol Chem, 2003.

rat glioma C6 cells = assay: Rat glioma C6 cell proliferation (crystal violet staining); format: cell-based; conditions: 48 h
Experimental: The cell line used was rat glioma C6 cells. The cells were cultured as previously described (Cuevas P et al. Neurol Res, 2005). The cells were cultured as adherent cells in Dulbecco's modified Eagle's medium, supplemented with 7.5% (v/v) of fetal bovine serum, 10 μg/ml of streptomycin and 10 units/ml of penicillin. The tumor cells were seeded in 24-well plates at a density of 10,000 cells/well, and were incubated at 37° C. in a humidified chamber with 5% CO2. Once adhered, the cells were treated or not (controls) with 2,5-dihydroxybenzoate at 100, 200, 500 or 1000 μM and they were allowed to proliferate for 48 h. After this time the glioma cell proliferation was evaluated by means of staining the fixed cells with crystal violet. The number of cells is proportional to the amount of retained dye, which was spectrophotometrically determined by measuring the absorbance at 595 nm once the dye was extracted from the cells.
The cell line used was the C6 cell line and the experiment was carried out as described in Example 2. Once adhered, the cells were treated or not (controls) with increasing concentrations of 2,5-DHC (10, 25, 50 and 100 μM) and they were allowed to proliferate for 48 h. After this time the glioma cell proliferation was evaluated by means of staining the fixed cells with crystal violet. The number of cells is proportional to the amount of retained dye, which was determined spectrophotometrically by measuring absorbance at 595 nm once the dye was extracted from the cells.
The cell line used was the C6 cell line and the experiment was carried out as described in examples 2 and 3. Once adhered, the cells were treated or not (controls) with (5A-2HBS) (500 μM) or (2A-5HBS) (500 μM) and they were allowed to proliferate for 48 h. After this time the glioma cell proliferation was evaluated by means of staining the fixed cells with crystal violet. The number of cells is proportional to the amount of retained dye, which was determined spectrophotometrically by measuring the absorbance at 595 nm once the dye was extracted from the cells.

[3] = target: T1, fibroblast growth factor-1 (FGF-1); assay: Crystal diffraction of complexes with FGF-1; conditions: co-crystal, electron density contoured at 1σ; acetoxyl groups conserved on binding
Experimental: Based on the crystal diffraction of the FGF-1:2-acetoxy-5-hydroxybenzene sulfonic acid, FGF-1:5-acetoxy-2-hydroxybenzene sulfonic acid and FGF-1:2,5-diacetoxybenzene sulfonic acid complexes, the structures of the complexes were calculated and represented. FIGS. 13, 14 and 15, which show the surface of the dyed protein according to its electrostatic potential (light grey, negative charge; dark grey, positive charge; white, regions with no charge), show the manner in which 2-acetoxy-5-hydroxybenzene sulfonic acid, 5-acetoxy-2-hydroxybenzene sulfonic acid and 2,5-diacetoxybenzene sulfonic acid interact, respectively, with FGF-1.

[4] = test system: tumor cells of subcutaneous gliomas; assay: Apoptosis in sections of established subcutaneous gliomas in rats; format: in vivo; conditions: 100 mg/kg/day i.p. for 10 days
Description: Tumor cells elude the programmed cell death process or apoptosis that normal cells experience. Apoptosis induction in tumor cells is one way to confront the development of a tumor. To evaluate the effect of potassium 2,5-dihydroxybenzene sulfonate […] on tumor cell apoptosis, 6 μm thick sections of the subcutaneous gliomas described in example 4 were made. The sections were stained with hematoxylin and eosin and observed at a magnification of 313 times using immersion oil. In these conditions, cell apoptosis is shown by the existence of apoptotic bodies appearing as strongly chromogenic granules in the cell nucleus which is frequently fragmented.

[5] = test system: human prostate cancer PC-3 cells; assay: Subcutaneous PC-3 prostate tumor implantation model in athymic mice; format: in vivo, athymic mice (Nu/Nu); conditions: 100 mg/kg daily i.p. for 15 days
Experimental: 5×10^6 human prostate cancer PC-3 cells were subcutaneously injected in male athymic mice (Nu/Nu) of 6-8 weeks of age and weighing 20-26 g. Ten days after the implantation of the tumor cells, the mice were randomly split into two groups: one of them received a daily injection of potassium 2,5-diacetoxybenzene sulfonate (DABS) by intraperitoneal route at a dose of 100 mg/kg dissolved in saline (0.9% NaCl) whereas the other group received a daily injection of carrier (saline). The treatments were administered for 15 days. The volumes of the tumors induced by the implantation of PC-3 cells were measured through the skin on alternating days using a Vernier caliper. The volume was calculated using the formula V=(D×2d)/2, where D is the larger diameter in mm, d is the smaller diameter in mm and V is the volume in mm3. At the end of treatment, the mice were sacrificed and the tumors were weighed.

bFGF-induced fibrosis = bFGF-induced fibrosis around subcutaneously implanted gelatin sponges in rats; format: in vivo, Sprague-Dawley rats; conditions: 100 μM in gelatin sponge with bFGF and heparin, subcutaneous, 7 days
Experimental: Sterile gelatin sponges (1 mm^3; Curaspon Dental, Clinimed Holding, Zwanenburg, The Netherlands) were subcutaneously implanted in the dorsal region of the neck in Sprague-Dawley rats after the induction of intraperitoneal anesthesia. The animals were split into two groups: group A, the sponges were moistened with 200 μl of saline solution which contained 25 μg/ml of heparin and 10 μg/ml of basic FGF (bFGF); group B, the sponges were moistened in the same solution as in group A, but which solution further contained 2,5-dihydroxybenzoate (100 μM). After 7 days, the sponges and the surrounding subcutaneous fat were removed and histologically analyzed.

T1 sequence (P05230 whole entry, species assumed): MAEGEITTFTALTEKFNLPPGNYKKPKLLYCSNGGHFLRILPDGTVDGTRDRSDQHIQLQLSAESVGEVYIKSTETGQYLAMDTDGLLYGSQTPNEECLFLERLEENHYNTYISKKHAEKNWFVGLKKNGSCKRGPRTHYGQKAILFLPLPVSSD

O=S(=O)([O-])c1cc(O)ccc1O.[K+] [DHBS, potassium 2,5-dihydroxybenzene sulfonate, reference compound]
average size (volume) of subcutaneous gliomas [1]: less than that of the rats treated with carrier
mitogenesis induced by FGF-1 [2]: inhibition of the mitogenesis

CC(=O)Oc1ccc(O)c(S(=O)(=O)[O-])c1.[K+] [5A-2HBS, potassium 5-acetoxy-2-hydroxybenzene sulfonate]
rat glioma cell proliferation (rat glioma C6 cells; 500 μM): caused the inhibition of rat glioma cell proliferation
binding site on FGF-1 in the crystal complex [3]: occupy a site that is very close to the one that has been described occupied by 2,5-dihydroxybenzene sulfonic acid
mitogenesis induced by FGF-1 [2]: inhibition of mitogenesis

CC(=O)Oc1ccc(O)cc1S(=O)(=O)[O-].[K+] [2A-5HBS, potassium 2-acetoxy-5-hydroxybenzene sulfonate]
rat glioma cell proliferation (rat glioma C6 cells; 500 μM): caused the inhibition of rat glioma cell proliferation
binding site on FGF-1 in the crystal complex [3]: occupy a site that is very close to the one that has been described occupied by 2,5-dihydroxybenzene sulfonic acid
mitogenesis induced by FGF-1 [2]: inhibition of mitogenesis

CC(=O)Oc1ccc(OC(C)=O)c(S(=O)(=O)[O-])c1.[K+] [DABS, potassium 2,5-diacetoxybenzene sulfonate]
tumor cells in apoptosis in glioma sections (hematoxylin and eosin) [4]: a large number of tumor cells in apoptosis
probability of being tumor-free (χ2 test) versus group treated with DHBS [1]: greater probability of being tumor-free
average size (volume) of subcutaneous gliomas [1]: even less
binding site on FGF-1 in the crystal complex [3]: occupy a site that is very close to the one that has been described occupied by 2,5-dihydroxybenzene sulfonic acid
mitogenesis induced by FGF-1 [2]: inhibition of mitogenesis
weight of the extracted tumor when treatment ended [5]: significant reduction
tumor growth (tumor volume measured through the skin) ([5]; started 10 days after implantation): significantly reduced

O=C(O)c1cc(O)ccc1O [2,5-dihydroxybenzoate, 2,5-dihydroxybenzoic acid]
rat glioma C6 cell proliferation, significance of the effect (rat glioma C6 cells; 500 μM): statistically significant
rat glioma C6 cell proliferation, significance of the effect (rat glioma C6 cells; 1000 μM): statistically significant
rat glioma C6 cell proliferation (absorbance at 595 nm) (rat glioma C6 cells; 100, 200, 500 or 1000 μM): inhibited rat glioma C6 cell proliferation in a concentration-dependent manner
bFGF-induced fibrosis (fibroblasts in septa of connective tissue of adipose tissue) (bFGF-induced fibrosis): reduces bFGF-induced fibrosis
